# Experimental data reported in patent publication US20180369258A1, “ANTI-BACTERIAL COMPOUNDS BASED ON AMINO-GOLD PHOSPHINE COMPLEXES” (priority 2015, published 2018).
# Experiments:
# Type in all cases: cell-based
# [1] = system: S. aureus (Oxford strain); experiment: Growth assay for S. aureus (MIC); conditions: background statement for auranofin
# Description: Stock solution of the test compounds (20 mg/ml) in dimethyl sulfoxide (DMSO) were serially diluted in DMSO and each diluted compound added in duplicate to a 96-well plate to a final DMSO concentration of 2% (v/v). An overnight culture of S. aureus (Oxford strain) grown in tryptic soy broth (TSB) was diluted to approximately 5×10^7 cfu/ml and 150 μl of this sample was added to each well of the 96-well plates. Control wells included an ‘untreated’ control with bacteria in TSB in the presence of 2% DMSO and a negative sample (containing 150 μl TSB growth media in the presence of 2% DMSO). Plates were incubated in a shaking incubator at 37° C. for 22-24 hours and bacterial growth assessed by absorbance at a wavelength of 595 nm. The minimum inhibitory concentration (MIC) was defined as the lowest concentration of compound that inhibited growth compared to the no-treatment control.
# [2] = system: V. cholerae; experiment: In vitro growth inhibition of V. cholerae (MIC); conditions: background statement for auranofin
# [3] = system: A. baumannii NC13421; experiment: Disk diffusion assay, multidrug resistant clinical isolate
# Description: (§1) The activity of test compounds against multi-drug resistant bacterial strains was assessed by the disk diffusion assay; a standardised method to assess for the antimicrobial susceptibility of microorganisms (adapted from EUCAST, Version 5, January 2015). In brief, bacterial cultures were suspended in phosphate buffer and spread evenly onto blood agar plates. Cellulose disks (5 mm) were placed onto the agar plates and 3 μl test compound (60 μg/disk) were pipetted to the centre. A panel of standard antibiotics disks (Sigma) were used to control for the antimicrobial resistance profile of the individual strains (quantity as indicated in the table). The plates were then placed into a thermo-incubator and were cultured at 37° C. over-night. Activity was recorded by measuring the zone of clearance (mm) around the disks.
# [4] = system: E. coli 13400; experiment: as above
# Description: as §1
# [5] = system: E. faecalis DSM13591; experiment: as above
# Description: as §1
# [6] = system: K. pneumoniae 13368; experiment: as above
# Description: as §1
# [7] = system: human hepatocyte cell line (HepG2); experiment: HepG2 cell inhibition assay (CCK-8 viability); conditions: 50% growth inhibition vs untreated control, 24 hours
# Description: Cell counting kit-8 (Sigma, CCK-8) assays were performed to assess the effect of compounds on cell viability. The assay is based on the reduction of a water-soluble tetrazolium salt (WST-8) by cellular dehydrogenases to a formazan dye which can be detected spectroscopically. 96-well plates were seeded with the human hepatocyte cell line (HepG2) at approximately 8×10^3 cells per well in Eagle's Minimum Essential Medium (EMEM) with Earle's salts and sodium bicarbonate supplemented with 10% heat-inactivated foetal bovine serum 2 mM glutamine and 1% non-essential amino acids (NEAA). The following day serial dilutions of compounds (dissolved and diluted in DMSO) were added to the cells in duplicates. Control wells included an ‘untreated’ control where cells were grown in the presence of 1% DMSO and a ‘medium only’ control (plus 1% DMSO). After 24 hours CCK-8 reagent (10 μl) was added to each well and cell viability was assessed by measuring the absorbance at a wavelength of 450 nm after 2-3 h hours. Only living cells can reduce the tetrazolium salts into coloured formazan products. Results were expressed as 50% growth inhibition (TD50) values compared to ‘untreated’ control.
Molecule,HepG2 cell TD50 [7] [µg/mL],further results
CC(=O)OC[C@H]1O[C@@H]([S-])[C@H](OC(C)=O)[C@@H](OC(C)=O)[C@@H]1OC(C)=O.CCP(CC)CC.[Au+] [Auranofin],,"MIC, in vitro growth of S. aureus (Oxford strain) [1]: 0.6 to 0.9 µg/mL; MIC, in vitro growth of V. cholerae [2]: 2.5 µg/mL"
CO/N=C(\C(=O)N[C@@H]1C(=O)N2C(C(=O)O)=C(COC(C)=O)CS[C@H]12)c1csc(N)n1 [Cefotaxime],,Size of Clearance of Zone ([3]; antibiotic disk 30 μg): R; Size of Clearance of Zone ([4]; antibiotic disk 30 μg): 18 mm; Size of Clearance of Zone ([5]; antibiotic disk 30 μg): R; Size of Clearance of Zone ([6]; antibiotic disk 30 μg): R
CO/N=C(\C(=O)N[C@@H]1C(=O)N2C(C(=O)O)=C(CSc3nc(=O)c(=O)[nH]n3C)CS[C@H]12)c1csc(N)n1 [Ceftriaxone],,Size of Clearance of Zone ([3]; antibiotic disk 30 μg): R; Size of Clearance of Zone ([4]; antibiotic disk 30 μg): R; Size of Clearance of Zone ([5]; antibiotic disk 30 μg): R; Size of Clearance of Zone ([6]; antibiotic disk 30 μg): R
C[P](C)(C)=[Au][N]1CCOCC1=O [Compound 1],4,
C[P](C)(C)=[Au][N]1CCCCC1=O [Compound 2],3,
CC[P](CC)(CC)=[Au][N]1CCOCC1=O [Compound 3],6,
CC[N]([Au]=[P](C)(C)C)C(C)=O [Compound 4],7,
CN1CC[N]([Au]=[P](C)(C)C)C1=O [Compound 5],6,
C[P](C)(C)=[Au][N]1CCN(c2ccccc2)C1=O [Compound 6],9,
C[P](C)(C)=[Au][N]1C(=O)CCC1=O [Compound 7],11,
C[P](C)(C)=[Au][N]1C(=O)COCC1=O [Compound 8],9,
C[P](C)(C)=[Au][N]1CCOC1=O [Compound 9],7,
C[P](C)(C)=[Au][N]1C(=O)c2ccccc2C1=O [Compound 10],15,
CC[P](CC)(CC)=[Au][N]1C(=O)c2ccccc2C1=O [Compound 11],4,
C[P](C)(C)=[Au][N]1C(=O)COc2ccccc21 [Compound 12],4,
C[P](C)(C)=[Au][n]1ccccc1=O [Compound 13],3,
C[P](C)(C)=[Au][N]1C(=O)CCCC1=O [Compound 14],7,
C[P](C)(C)=[Au][N]1C(=O)C2CCCN2C1=O (stereo not shown) [Compound 15],3,
CC1C(=O)[N]([Au]=[P](C)(C)C)C(=O)N1c1ccccc1 (stereo not shown) [Compound 16],10,
CN1C(=O)[N]([Au]=[P](C)(C)C)C(=O)C1(C)C [Compound 17],8,
C[P](C)(C)=[Au][N]1CCCOC1=O [Compound 18],5,
CN1C(=O)[N]([Au]=[P](C)(C)C)C(=O)C12CCCC2 [Compound 19],13,
C[P](C)(C)=[Au][N]1Cc2ccccc2C1=O [Compound 20],2,
C[N]([Au]=[P](C)(C)C)S(C)(=O)=O [Compound 21],4,
C[N]([Au]=[P](C)(C)C)S(=O)(=O)c1ccccc1 [Compound 24],5,
C[P](C)(C)=[Au][n]1ccn(-c2ccccc2)c1=O [Compound 25],5,
COc1ccc(N2CC[N]([Au]=[P](C)(C)C)C2=O)cc1 [Compound 26],6,

Molecule,HepG2 cell TD50 [7] [µg/mL],further results
C[P](C)(C)=[Au][N]1CCN(c2ccc(F)cc2)C1=O [Compound 27],4,
C[P](C)(C)=[Au][N]1CCCS1(=O)=O [Compound 28],9,
C[P](C)(C)=[Au][N]1CCCCS1(=O)=O [Compound 29],3,
CC1(C)OC(=O)[N]([Au]=[P](C)(C)C)C1=O [Compound 30],3,
C[P](C)(C)=[Au][N]1CCCC1=O [Compound 31],3,
C[P](C)(C)=[Au][n]1cccn1 [Compound 36],7.3,
C[P](C)(C)=[Au][n]1ccnn1 [Compound 37],11.9,
C[P](C)(C)=[Au][n]1cnnc1 [Compound 38],7,
COc1ccc2c(c1)nc[n]2[Au]=[P](C)(C)C [Compound 39],9,
C[P](C)(C)=[Au][n]1cnnn1 [Compound 40],6,
C[P](C)(C)=[Au][n]1cc(C(F)(F)F)cn1 [Compound 41],16,
C[P](C)(C)=[Au][n]1ncc2cccnc21 [Compound 42],5,
C[P](C)(C)=[Au][n]1ccnc1 [Compound 43],4,
C[P](C)(C)=[Au][n]1cnc2ccccc21 [Compound 44],5,
Cc1nc2ccccc2[n]1[Au]=[P](C)(C)C [Compound 45],5,
Cc1nnc(C)[n]1[Au]=[P](C)(C)C [Compound 46],5,
Cc1ncc[n]1[Au]=[P](C)(C)C [Compound 47],3.9,
C[P](C)(C)=[Au][n]1ccnc1C(F)(F)F [Compound 48],4,
COc1ccc2c(cn[n]2[Au]=[P](C)(C)C)c1 [Compound 50],3,
C[P](C)(C)=[Au][n]1cnc2cccnc21 [Compound 51],3,
C[C@@H](O)[C@H]1C(=O)N2C(C(=O)O)=C(S[C@@H]3CN[C@H](C(=O)Nc4cccc(C(=O)O)c4)C3)[C@H](C)[C@H]12 [Ertapenem],,Size of Clearance of Zone ([3]; antibiotic disk 10 μg): R; Size of Clearance of Zone ([4]; antibiotic disk 10 μg): 30 mm; Size of Clearance of Zone ([5]; antibiotic disk 10 μg): 14 mm; Size of Clearance of Zone ([6]; antibiotic disk 10 μg): R
C[C@@H](O)[C@H]1C(=O)N2C(C(=O)O)=C(SCCN=CN)C[C@H]12 [Imipenem],,Size of Clearance of Zone ([3]; antibiotic disk 10 μg): R; Size of Clearance of Zone ([4]; antibiotic disk 10 μg): 29 mm; Size of Clearance of Zone ([5]; antibiotic disk 10 μg): 26 mm; Size of Clearance of Zone ([6]; antibiotic disk 10 μg): 18 mm
CC(=O)NC[C@H]1CN(c2ccc(N3CCOCC3)c(F)c2)C(=O)O1 [Linezolid],,Size of Clearance of Zone ([5]; antibiotic disk 10 μg): 22 mm
C[C@@H](O)[C@H]1C(=O)N2C(C(=O)O)=C(S[C@@H]3CN[C@H](C(=O)N(C)C)C3)[C@H](C)[C@H]12 [Meropenem],,Size of Clearance of Zone ([3]; antibiotic disk 10 μg): R; Size of Clearance of Zone ([5]; antibiotic disk 10 μg): 17 mm; Size of Clearance of Zone ([6]; antibiotic disk 10 μg): 22 mm
CN[C@H](CC(C)C)C(=O)N[C@H]1C(=O)N[C@@H](CC(N)=O)C(=O)N[C@H]2C(=O)N[C@H]3C(=O)N[C@H](C(=O)N[C@H](C(=O)O)c4cc(O)cc(O)c4-c4cc3ccc4O)[C@H](O)c3ccc(c(Cl)c3)Oc3cc2cc(c3O[C@@H]2O[C@H](CO)[C@@H](O)[C@H](O)[C@H]2O[C@H]2C[C@](C)(N)[C@H](O)[C@H](C)O2)Oc2ccc(cc2Cl)[C@H]1O [Vancomycin],,Size of Clearance of Zone ([5]; antibiotic disk 30 μg): R
Colistin,,Size of Clearance of Zone ([3]; antibiotic disk 10 μg): 11 mm; Size of Clearance of Zone ([4]; antibiotic disk 10 μg): 12 mm; Size of Clearance of Zone ([6]; antibiotic disk 10 μg): 9.5 mm
